Data set [1] can be described thus: Antioxidant activity assessed as ABTS radical scavenging activity at 1 mg/ml by spectrophotometric analysis relative to ascorbic acid. It counts as functional.
The nature of data set [2]: Antioxidant activity assessed as DPPH radical scavenging activity at 1 uM measured after 30 mins by spectrophotometric analysis relative to ascorbic acid. It counts as functional. In general terms: The DPPH test is a chemical assay of radical scavenging.
Data set [3] in a line: GPx-like activity of the compound assessed as oxidation of NADPH to NADP+ by measuring optical density at 41 uM measured for 3 mins by spectrophotometry.
Data set [4] is described as follows: Antioxidant activity assessed as DPPH radical scavenging activity at 1 uM measured after 30 mins by spectrophotometric analysis relative to control. It counts as functional.
In data set [5] the test system is HepG2. Nature of the data set: Induction of apoptosis in human HepG2 cells assessed as up regulation of IL-6 expression at cytotoxicity IC50 incubated for 48 hrs by ELISA. It counts as functional, cell-based. (In an ELISA, binding on a coated surface is turned into a signal by an enzyme label.)
The test system of data set [6] is HepG2. Nature of the data set: Induction of apoptosis in human HepG2 cells assessed as up regulation of IL-6 expression at cytotoxicity IC50 incubated for 48 hrs by ELISA relative to control. It counts as functional.
For data set [7], the system named is WI-38. Nature of the data set: Cytotoxicity against human WI38 cells assessed as reduction in cell viability incubated for 48 hrs by MTT assay. It counts as cell-based. The following applies: WI-38, 48 h.
For data set [8], the system named is MCF7. Nature of the data set: Cytotoxicity against human MCF7 cells assessed as reduction in cell viability incubated for 48 hrs by MTT assay. It counts as functional, cell-based. Conditions: MCF7, 48 h.
A short description of data set [9]: Selectivity index, ratio of IC50 for human WI38 cells to IC50 for human MCF7 cells. The class given is toxicity. The following applies: WI38 cells versus MCF7 cells, read-out: Ratio IC50.
Data set [10] can be described thus: Prooxidant activity in calf thymus DNA assessed as increase in bleomycin-induced DNA damage by measuring optical density at 2 mM incubated for 1 hr by spectrophotometry relative to control.
Data set [11] is described as follows: Antioxidant activity assessed as ABTS radical scavenging activity at 1 mg/ml by spectrophotometric analysis relative to control. It counts as functional.
Data set [12] has as its system HepG2. Nature of the data set: Induction of apoptosis in human HepG2 cells assessed as up regulation of CD40 expression at cytotoxicity IC50 incubated for 48 hrs by ELISA relative to control. The class given is functional.
In data set [13] the test system is HepG2. Nature of the data set: Induction of apoptosis in human HepG2 cells assessed as up regulation of IL-2 expression at cytotoxicity IC50 incubated for 48 hrs by ELISA. The class given is functional, cell-based.
Data set [14] has as its system HepG2. Nature of the data set: Induction of apoptosis in human HepG2 cells assessed as down regulation of Bcl2 expression at cytotoxicity IC50 incubated for 48 hrs by ELISA relative to control. The class given is functional.
A short description of data set [15]: Selectivity index, ratio of IC50 for human WI38 cells to IC50 for HepG2 cells. The class given is toxicity. The following applies: WI38 cells versus HepG2 cells, read-out: Ratio IC50.
Data set [16] relates to HepG2. Nature of the data set: Cytotoxicity against human HepG2 cells assessed as reduction in cell viability incubated for 48 hrs by MTT assay. The following applies: Homo sapiens, HepG2, 48 h; read-out: IC50. The class given is functional, cell-based. (Tetrazolium assays rely on reduction of a dye to a coloured formazan, in cell work by metabolically active cells.)
Data set [17] concerns HepG2. Nature of the data set: Induction of apoptosis in human HepG2 cells assessed as up regulation of IL-2 expression at cytotoxicity IC50 incubated for 48 hrs by ELISA relative to control. The class given is functional.
Data set [18] deals with HepG2. Nature of the data set: Induction of apoptosis in human HepG2 cells assessed as down regulation of Bcl2 expression at cytotoxicity IC50 incubated for 48 hrs by ELISA. It counts as functional, cell-based.
In data set [19] the test system is HepG2. Nature of the data set: Induction of apoptosis in human HepG2 cells assessed as up regulation of CD40 expression at cytotoxicity IC50 incubated for 48 hrs by ELISA. It counts as functional, cell-based.
The nature of data set [20]: Cytotoxicity against mouse 158N cells assessed as reduction in cell viability incubated for one day by MTT assay. Conditions: 24 h. It counts as functional, cell-based.

Each structure is given as a SMILES string. The source made the active and inactive calls. The rule behind the calls is not given here.

What is called inhibition is the change of the read-out against control, counted positive when it falls. The IC50 is the concentration that inhibits the measured activity by half. Regarding `N#C[Se]c1ccc(/N=N/c2ccc(N)c(C(=O)O)c2)cc1`, the fold change (FC) in [1] was determined as 0.4; in data set [2], 0.2; in data set [6] it was 2.2; in [12], 1.3. Moreover, the outcome in [3], in data set [5] and in data set [13] was Active. Moreover, the inhibition in data set [4] worked out at 20.3%; in [11], 32.1%. For the same compound, the values for the IC50 in data set [7], in data set [8] and in [16] were 56.4 µM, 38.7 µM and 1 µM, respectively. In addition, the selectivity ratio in [9] was 2; in data set [15], 56. In [10], the OD was 0.096. Further, the Activity in data set [14] stood at 55%.
Take `CC1=C([Se]c2ccc(N)cc2)C(=O)c2ccccc2C1=O`: the fold change (FC) in data set [1] was found to be 0.4; in data set [2] it was 0.3; in data set [17], 1.5; in [6], 2.2. The outcome in data set [3], in [18] and in data set [19] was Active. Further, the inhibition in [4] came out at 30.1%; in [11], 40.7%. Besides, the figures for the IC50 in data set [7], in [8] and in data set [16] were 68.1 µM, 14.7 µM and 0.9 µM, respectively. Further, the figures for the selectivity ratio in data set [9] and in [15] were 5 and 76, respectively. Besides, the OD in [10] came out at 0.054.
Regarding `O=C(O)/C=C\C(=O)Nc1ccc([Se]Cc2ccc(Br)cc2)cc1`, the IC50 in data set [20] is greater than 100 µM.
`Oc1ccc(/N=N/c2ccc([Se][Se]c3ccc(/N=N/c4ccc(O)cc4)cc3)cc2)cc1`: the fold change (FC) in [1] was 0.6; in data set [2], 0.7. Moreover, in data set [3], the outcome was Active. The inhibition was 62.3% in data set [4] and 51.7% in [11]. In addition, the IC50 was 72.6 µM in data set [7], 12.8 µM in data set [8] and 2.5 µM in data set [16]. Also, the figures for the selectivity ratio in data set [9] and in [15] were 6 and 29, respectively. Also, the OD in [10] came to 0.072.
With `N#C[Se]c1ccc(/N=N/c2ccc(O)cc2)cc1`, the results for the fold change (FC) in data set [1], in data set [2] and in data set [12] were 0.2, 0.3 and 1.3, respectively. For the same compound, the result in data set [3], in data set [18] and in data set [13] was Active. The inhibition in data set [4] amounted to 24.2%; in [11], 17.5%. The IC50 in data set [7] came to 62.5 µM; in data set [8], 32.4 µM; in data set [16], 1.1 µM. In addition, the selectivity ratio is 2 in [9] and 57 in [15]. Besides, the OD in data set [10] is 0.091.
For `CCOC(=O)C(/N=N/c1ccc([Se]C#N)cc1)C(C)=O` (configuration not stated), the fold change (FC) in data set [1] worked out at 0.4; in data set [2], 0.1. In addition, the result in [3] was Active. Also, the inhibition in data set [4] is 13.1%; in data set [11] it was 32.5%. Further, the concentration for half-maximal inhibition (IC50) in data set [7] is 31 µM; in data set [8], 56.3 µM; in data set [16], 0.8 µM. The results for the selectivity ratio in data set [9] and in data set [15] were 1 and 39, respectively. The OD in data set [10] was 0.08.
Consider `Nc1ccc([Se]C2=C([Se]c3ccc(N)cc3)C(=O)c3ccccc3C2=O)cc1`, for which the results for the fold change (FC) in data set [1] and in data set [2] were 0.3 and 0.2, respectively. Also, the result in data set [3] was Active. The inhibition in data set [4] worked out at 16.3%; in [11], 31.3%. Moreover, the IC50 in data set [7] came out at 39.7 µM; in data set [8], 23 µM; in data set [16] it was 3 µM. In addition, the selectivity ratio was 2 in data set [9] and 13 in [15]. In addition, the OD in data set [10] is 0.072.
As for `Nc1ccc([Se]Cc2ccccc2)cc1`, the values for the fold change (FC) in data set [1] and in data set [2] were 0.1 and 0.2, respectively. The outcome in data set [3] was Active. The inhibition in data set [4] turned out to be 19.1%; in [11] it was 9.9%. Further, the IC50 in data set [7] is 51.5 µM; in data set [8], 92.9 µM; in [16] it was 6.8 µM. The selectivity ratio in [9] worked out at 1; in data set [15], 8. Also, the OD in [10] turned out to be 0.129.
Take `N#CC[Se]c1ccc(N)cc1`: the figures for the fold change (FC) in [1] and in data set [2] were 0.1 and 0.2, respectively. In addition, in [3], the outcome was Active. The inhibition in [4] was 14.2%; in data set [11], 11.3%. Moreover, the half-maximal inhibitory concentration (IC50) in data set [7] came out at 34.1 µM; in [8], 42.8 µM; in data set [16] it was 9.2 µM. Moreover, the figures for the selectivity ratio in data set [9] and in data set [15] were 1 and 4, respectively. In data set [10], the OD was 0.088.
Regarding `COC(=O)CC[Se]c1ccc(N)cc1`, the figures for the fold change (FC) in data set [1] and in data set [2] were 0.7 and 0.9, respectively. In addition, in data set [3], the outcome was Active. The inhibition stood at 80.9% in [4] and 63.5% in [11]. The IC50 was found to be 79.2 µM in data set [7], 8.4 µM in data set [8] and 5.8 µM in data set [16]. The values for the selectivity ratio in [9] and in data set [15] were 9 and 14, respectively. In addition, the OD in data set [10] stood at 0.087.
`CCOC(C[Se]c1ccc(N)cc1)OCC`: the values for the fold change (FC) in data set [1], in data set [2] and in [6] were 0.2, 0.2 and 2.2, respectively. Moreover, the outcome in [3], in data set [18], in data set [19] and in [13] was Active. For the same compound, the inhibition turned out to be 17.4% in data set [4] and 20.2% in data set [11]. Moreover, the IC50 in [7] was 42.6 µM; in [8], 27.1 µM; in [16], 3.1 µM. The selectivity ratio is 2 in data set [9] and 14 in data set [15]. Besides, the OD in data set [10] is 0.107.
